Data: US10782295B2, “Cysteine-reactive ligand discovery in proteomes” (THE SCRIPPS RESEARCH INSTITUTE, priority 2013, dated 2020)

Biological target: T1, MMS19 (Homo sapiens, UniProt Q96T76)
T1 construct: directly in native proteomes; endogenous in cells; host or cells: MDA-MB-231
T1 sequence (Q96T76 1-1030): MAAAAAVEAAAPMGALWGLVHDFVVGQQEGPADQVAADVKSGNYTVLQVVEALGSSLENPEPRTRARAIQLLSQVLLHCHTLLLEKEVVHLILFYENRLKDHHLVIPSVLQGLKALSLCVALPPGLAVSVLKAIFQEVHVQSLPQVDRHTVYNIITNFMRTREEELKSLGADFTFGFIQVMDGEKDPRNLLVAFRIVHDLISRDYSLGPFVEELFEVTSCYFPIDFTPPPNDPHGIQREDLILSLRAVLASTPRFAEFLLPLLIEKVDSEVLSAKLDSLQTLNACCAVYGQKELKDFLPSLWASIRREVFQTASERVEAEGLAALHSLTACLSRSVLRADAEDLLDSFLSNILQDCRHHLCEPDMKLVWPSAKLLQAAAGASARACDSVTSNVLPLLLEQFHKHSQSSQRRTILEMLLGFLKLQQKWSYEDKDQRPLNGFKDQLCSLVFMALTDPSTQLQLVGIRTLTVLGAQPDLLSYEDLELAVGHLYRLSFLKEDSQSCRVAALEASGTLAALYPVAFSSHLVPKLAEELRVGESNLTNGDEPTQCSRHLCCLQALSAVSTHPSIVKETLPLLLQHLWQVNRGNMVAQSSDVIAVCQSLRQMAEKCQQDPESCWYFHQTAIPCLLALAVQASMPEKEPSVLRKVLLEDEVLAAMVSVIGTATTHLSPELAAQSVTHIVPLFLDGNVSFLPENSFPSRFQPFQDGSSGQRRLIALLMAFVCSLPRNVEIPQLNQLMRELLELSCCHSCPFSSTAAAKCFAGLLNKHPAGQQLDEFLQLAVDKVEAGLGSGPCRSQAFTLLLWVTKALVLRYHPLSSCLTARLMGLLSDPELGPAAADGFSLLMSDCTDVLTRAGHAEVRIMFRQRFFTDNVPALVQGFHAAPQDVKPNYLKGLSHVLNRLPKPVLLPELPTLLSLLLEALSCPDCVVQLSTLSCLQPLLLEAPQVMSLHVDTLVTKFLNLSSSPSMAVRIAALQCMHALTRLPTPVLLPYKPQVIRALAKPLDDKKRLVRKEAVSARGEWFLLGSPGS
Assay: competitive isoTOP-ABPP, MDA-MB-231 soluble proteome
Format: binding
Conditions: 60 min; for R value (isoTOP-ABPP ratio heavy/light) for IA-labeled cysteine of MMS19: 100 μM LDE, peptide LMGLLSDPELGPAAADGFSLLMSDC*TDVLTR
Procedure: Here, we envisioned that isoTOP-ABPP could be advanced to discover and quantify reactions between cysteines in proteomes and any electrophilic compound. In this advanced, ‘competitive’ version of isoTOP-ABPP (FIG. 1a), a proteome is treated with an electrophile (experimental sample) or DMSO (control sample). Both proteomic samples are then labeled with the IA probe and conjugated by CuAAC to light and heavy azide-biotin tags, respectively. The light and heavy samples are then mixed and subjected to our described isoTOP-ABPP protocol for enrichment, identification, and quantification of IA-labeled cysteines^30. Electrophile-modified cysteines are quantified by measuring the MS1 chromatographic peak ratios (R values) for heavy (DMSO-treated) over light (electrophile-treated) samples, with higher R values reflecting greater sensitivity to the electrophile. In this format, competitive isoTOP-ABPP can assay electrophiles against 1000+ cysteines in parallel directly in native proteomes without requiring any chemical modification to the electrophiles themselves.
Competitive isoTOP-ABPP experiments were performed in quadruplicate using the soluble proteome of the human breast cancer cell line MDA-MB-231 cell line. Proteomes were treated with 100 μM HNE, 15d-PGJ2, or 2-HD, for 60 minutes, followed by the IA-probe (100 μM, 60 min) A total of ˜1400 cysteine reactivities were quantified across the aggregate data set, with at least 900 cysteine reactivities quantified for each LDE (FIG. 2a) more than 750 of which were quantified for all the three electrophiles.
HNE was purchased from EMD biosciences, 15d-PGJ2 was purchased from Cayman Chemicals and 2-HD was purchased from Santa Cruz Biotechnology. Proteome samples were diluted to a 4 mg protein/mL solution in PBS. For each profiling experiment, one aliquot of the proteome sample (0.5 mL) was treated with 100 μM of LDE using 5 μL of a 10 mM stock and the other aliquot was treated with 5 μL of either ethanol (for HNE and 15d-PGJ2) or DMSO (for 2-HD) as control. For the concentration-dependent profiling experiments using HNE, aliquots of the proteomes (0.5 mL each) were treated with 5, 10, 50, 100 and 500 μM of HNE using 5 μL of 0.5, 1.0, 5, 10 and 50 mM of stock solution, respectively. After 60 minutes of treatment at room temperature, both the LDE-treated and control aliquots were passed through a NAP-5 Sephadex column (GE healthcare) to remove any unreacted LDE. The volume of each aliquot was increased to 1 mL with the concentration at 2 mg/mL after this step.
Each of the control and LDE-treated proteome samples (˜2 mg protein/mL in 1 mL volume) was treated with 100 μM of IA-probe using 10 μL of a 10 mM stock in DMSO. The labeling reactions were incubated at room temperature for 1 hour. Click chemistry (acetylene-azide cycloaddition) was performed by the addition of 100 μM of either the Heavy-TEV-Tag (for the control sample) or Light-TEV-Tag (for the LDE-treated sample) (20 μL of a 5 mM stock), 1 mM TCEP (fresh 50× stock in water), 100 μM ligand (17× stock in DMSO:t-Butanol 1:4) and 1 mM CuSO4 (50× stock in water). Samples were allowed to react at room temperature for 1 hour. After the click chemistry step, the light and heavy-labeled samples were mixed together and centrifuged (5900×g, 4 min, 4° C.) to pellet the precipitated proteins.
The pellets were washed twice in cold MeOH, after which the pellet was solubilized in PBS containing 1.2% SDS via sonication and heating (5 min, 80° C.). Samples were subjected to streptavidin enrichment of probe-labeled proteins, sequential on-bead trypsin and TEV digestion, and liquid chromatography-mass spectrometry (LC-MS) analysis according to the published isoTOP-ABPP protocol^30.
IA-probe labeled peptides were identified by SEQUEST2 and DTASelect3, and the quantification of heavy/light ratios (isoTOP-ABPP ratios, R) was performed by an in-house software (CIMAGE) as previously described. […]

`CCCCCCCCCCCCC/C=C/C=O` [2-HD, 2-trans-hexadecenal] was tested, and the “R value (isoTOP-ABPP ratio heavy/light) for IA-labeled cysteine of MMS19” value (“R value (isoTOP-ABPP ratio heavy/light)” below) was 1.1.
In the case of `CCCCCC(O)/C=C/C=O` (stereo not shown) [4-HNE, 4-Hydroxynonenal], the “R value (isoTOP-ABPP ratio heavy/light)” value is reported as 1.78.
`CCCCC/C=C/C=C1/C(=O)C=C[C@@H]1C/C=C\CCCC(=O)O` [PGJ2, 15-deoxy-Δ12,14-prostaglandin J2] was tested, and the “R value (isoTOP-ABPP ratio heavy/light)” value was >15 and the “blockade of IA-probe labeling of Cys848 of MMS19” value (100 μM) was “completely blocked”.
